We go through 18 compounds from ChEMBL document CHEMBL1127777, “Indolocarbazole nitrogens linked by three-atom bridges: a potent new class of PKC inhibitors” (Bioorg Med Chem Lett, 1994).

In this assay the target is Protein kinase C (PKC). In words: In vitro inhibition of protein kinase C from rat brain.

The IC50 is the concentration needed to halve the response being measured. For the compound `O=C1NC(=O)c2c1c1c3ccccc3n3c1c1c2c2ccccc2n1CN(CCO)C3`, the half-inhibitory concentration (IC50) was 17 nM. `O=C1NCc2c1c1c3ccccc3n3c1c1c2c2ccccc2n1CN(CCO)C3` returned an IC50 of 15 nM. Compound `O=C1NCc2c1c1c3ccccc3n3c1c1c2c2ccccc2n1CSC3` yielded an IC50 of 7 nM.

For the compound `O=C1NC(=O)c2c1c1c3ccccc3n3c1c1c2c2ccccc2n1CNC3`, the IC50 is 145 nM. Regarding `O=C1NC(=O)c2c1c1c3ccccc3n3c1c1c2c2ccccc2n1CN(O)C3`, the IC50 turned out to be 90 nM. The compound `O=C1NC(=O)c2c1c1c3ccccc3n3c1c1c2c2ccccc2n1C[S+]([O-])C3` displayed an IC50 of 19 nM.

`O=C1NCc2c1c1c3ccccc3n3c1c1c2c2ccccc2n1CS(=O)(=O)C3` returned an IC50 of 5 nM.

Compound `CN1Cn2c3ccccc3c3c4c(c5c6ccccc6n(c5c32)C1)C(=O)NC4=O` came in with an IC50 of 86 nM. `CCOC(=O)C1n2c3ccccc3c3c4c(c5c6ccccc6n(c5c32)CS1(=O)=O)C(=O)NC4=O` (stereo not drawn) gave an IC50 of 20 nM. Turning to `NC1=NC(=O)c2c1c1c3ccccc3n3c1c1c2c2ccccc2n1CSC3`, the IC50 is given as 24 nM. In the case of `O=C1NC(=O)c2c1c1c3ccccc3n3c1c1c2c2ccccc2n1CS(=O)(=O)C3`, the IC50 turned out to be 2 nM. Consider `O=C1NC(=O)c2c1c1c3ccccc3n3c1c1c2c2ccccc2n1C1COCC3S1(=O)=O`, for which the IC50 is 20 nM. `O=C1NC(=O)c2c1c1c3ccccc3n3c1c1c2c2ccccc2n1CSC3` gave an IC50 of 14 nM.

With `NC1=NC(=O)c2c1c1c3ccccc3n3c1c1c2c2ccccc2n1COC3`, the IC50 was found to be 24 nM. With `O=C1NC(=O)c2c1c1c3ccccc3n3c1c1c2c2ccccc2n1COC3` the figure was 11 nM; with `O=C1NC(=O)c2c1c1c3ccccc3n3c1c1c2c2ccccc2n1CN(C(CO)CO)C3`, 10 nM. In turn, `CC1n2c3ccccc3c3c4c(c5c6ccccc6n(c5c32)C(C)S1(=O)=O)C(=O)NC4=O` (stereo in doubt) came in with an IC50 of 2.4 nM. Under `CC1n2c3ccccc3c3c4c(c5c6ccccc6n(c5c32)C(C)S1(=O)=O)C(=O)NC4=O` (stereo in doubt; 16 (dl)) stands 120 nM.
